In test [1] the target is Calcium Channel (Oryctolagus cuniculus, UniProt P15381). Kind of test: Calcium channel antagonism: relaxing action on extracted blood vessel (rabbit femoral artery, contracture by 50 mM KCl). Particulars: 50 mM KCl contracture, 50% of maximum relaxing (0.1 mM papaverine). As for the experimental part:
(§1) Calcium Channel Antagonism and […] Action (Relaxing Action on Extracted Blood Vessel)
(§2) Male rabbits weighing 2-3 kg (Rabiton, Japanese albino species) were anesthetized through intravenous administration of pentobarbital (50 mg/kg), and sacrificed by bloodletting through dissection of axillary artery. Femoral artery was extracted, connective tissue surrounding the artery was removed, and helical specimen was prepared. The specimen was suspended in an organ bath (20 cc) filled with 37° C. Krebs-Henseleit nutritious solution and bubbled with a 95% O2 +5% CO2 mixed gas. 1.5 g of resting tension was loaded on femoral artery. Isometric change of the tension of the specimen was recorded on a thermal recorder (Nippon Koden WT-685G) via F-D pickup Nippon Koden (TB611T) and Preamp (Nippon Koden). Ca-antagonism of a test compound was evaluated by observing relaxing action due to accumulative addition of the compound on the contracture caused by the application of 50 mM KCl. α-Blocking action was similarly evaluated by observing such relaxing action on the contracture caused by the application of 1 μM norepinephrine (NE). […] The concentration of a given compound, which is necessary for giving 50% of the maximum relaxing (IC50), was determined using the above system.

Test [2] deals with femoral artery. Briefly: α-Blocking action: relaxing action on extracted blood vessel (rabbit femoral artery, contracture by 1 μM norepinephrine). Particulars: Oryctolagus cuniculus, 1 μM norepinephrine contracture, 50% of maximum relaxing (0.1 mM papaverine), read-out: Relaxing action on Blood Vessel IC50, 1 μM-NE. How it is done:
as §1, §2

Test [3] has as its system cardiac muscle damage due to ischemia. Kind of test: Anti-necrosis activity (left coronary ligation and reperfusion, CPK retention in left ventricle). Type of test: in vivo, rat (Wistar). Particulars: Rattus norvegicus; for inhibition in vivo at 1 mg/kg: 1 mg/kg iv; for inhibition in vivo at 0.3 mg/kg: 0.3 mg/kg iv. As for the experimental part:
Male Sic Wistar rats weighing 200-250 g were anesthetized with urethane (1 g/kg), and ramus descendens of the left coronaria was ligated for 20 minutes and then reperfused according to the method described by Hock et al (Hock, […]., Am. Heart J., 109 222, 1985). […] For three hours after the reperfusion, the rats were subjected to heat insulation on a warming mat. After 120 minutes, the hearts were extracted, and the free walls of the left ventricles were frozen and storred until determination of CPK activity. CPK activity was determined according to the method of Bernauer, W. (Arch. int. Pharmacodyn., 231 90, 1978) after minor modification. Thus, the extracted tissue was homogenized in 10 volumes of 0.1M Tris/HCl (pH 7.5) containing 1 mM mercaptoethanol and centrifuged at 20,000 g for 20 minutes. The supernatant was used for determination of CPK activity, which was conducted using a commercially available kit (CPK-Test, Wako). CPK was determined using serum CPK as a standard and expressed with "U/mg protein". […] The degree of the inhibition was measured in terms of the CPK activity retained in the left ventricle. The test results are shown in Table 7, wherein percentage of the retention (%) at each dose was calculated based on the following equation.

For test [4], the system named is cultured cardiac cells. Kind of test: Anti-hypoxia action on cultured cardiac cells (inhibition of CPK leakage). Type of test: cell-based, rat (newborn Crj-SD). The conditions noted are these: Rattus norvegicus, read-out: Anti-hypoxia Activity (%), rate of inhibition on CPK leakage. How it is done:
Anti-hypoxia action of the compounds of the present invention were investigated through studying their action in connection with the protection of cardiomuscular cells.
Primary culture of cardiac cells was prepared from newborn Crj-SD rats (2-3 day old) and used in the experiment. The primary culture was prepared according to the method described by Jones R. L. et al., Am. J. Pathol., 135, 541-556, 1989. Thus, cardiac cells were isolated from ventricle muscle using collagenase and pancreatin, and then the cardiac cells were separated and purified from cell debris, erythrocytes, and fibroblasts by means of Percoll density-gradient centrifugation. The cells were spread on a culture plate at a ratio of 2-3×10^5 cells/3.5 cm plate, and the cells were cultured for two days in Dulbecco's Modified Eagle's Medium (DMEM) containing 10% Fetal Bovine Serum (FBS) in an incubator (5% CO2 /95% Air) kept at 37° C. After sufficient growth of the cardiac cells, the culture medium was changed to DMEM free from FBS, and the culture was continued additional one day. The cells thus obtained were used in the experiment.
Hypoxia was generated using Gas Pak™ Anaerobic Chamber (BBL) which produces hypoxia by capturing residual O2 and changing it into H2 0 by the action of a H2 /CO2 generating bag and catalyst. The cardiac cell plate, wherein the culture medium had been changed to DMEM which is free from FBS and glucose, was set in the chamber, and the chamber was placed in an incubator. Anti-hypoxia activity of test compounds was determined by measuring inhibition rate of leakage of creatine phosphokinase activity into the culture medium.
The compounds tested were all dissolved in DMSO using HCO-50 as a solubilizing agent (DMSO:HCO-50=9:1), and directly charged onto the culture plate. The final concentrations of DMSO and HCO-50 in the culture medium were adjusted to 0.09% and 0.01% respectively. CPK activity was measured by colorimetry (Wako Kit) modified from Oliver method.
The numerical values in the table show cardiac cells-protecting activity of test compounds in terms of the rate (%) of inhibition on CPK leakage determined in connection with the test compounds when the amount of the CPK leakage for negative control (no addition of the test compounds) was defined as 100%.

For test [5], the system named is spontaneous hypertensive rats (SHR). Briefly: Action on blood pressure and heart rate of not-anesthetized SHR. Type of test: in vivo, rat (SHR). Particulars: 2 and 4 hours after administration; for Antihypertensive action (%): decrease in SBP.
Procedure: Action of the compounds of the invention on blood pressure and heart rate of not-anesthetized spontaneous hypertensive rats (SHR)
Male Japanese Charles-River SHR (13-17 week old) were used in the experiment (S. Matsuda, J. Pharmacol. Method, 17 361, 1987). Systolic blood pressure (SBP) and heart rate of the animals were measured non-invasively (indirectly) using hemadynamometer for caudal artery pressure (6 channel type) before the administration of test compounds, at 2 and 4 hours after administration. Test compounds were dissolved in DMSO (100%) and orally administered. Decreased values in SBP and heart rate determined 2 and 4 hours after administration when compared with those determined before administration are shown in percentage (%) in the following table.

Calcium Channel, sequence (P15381 whole entry): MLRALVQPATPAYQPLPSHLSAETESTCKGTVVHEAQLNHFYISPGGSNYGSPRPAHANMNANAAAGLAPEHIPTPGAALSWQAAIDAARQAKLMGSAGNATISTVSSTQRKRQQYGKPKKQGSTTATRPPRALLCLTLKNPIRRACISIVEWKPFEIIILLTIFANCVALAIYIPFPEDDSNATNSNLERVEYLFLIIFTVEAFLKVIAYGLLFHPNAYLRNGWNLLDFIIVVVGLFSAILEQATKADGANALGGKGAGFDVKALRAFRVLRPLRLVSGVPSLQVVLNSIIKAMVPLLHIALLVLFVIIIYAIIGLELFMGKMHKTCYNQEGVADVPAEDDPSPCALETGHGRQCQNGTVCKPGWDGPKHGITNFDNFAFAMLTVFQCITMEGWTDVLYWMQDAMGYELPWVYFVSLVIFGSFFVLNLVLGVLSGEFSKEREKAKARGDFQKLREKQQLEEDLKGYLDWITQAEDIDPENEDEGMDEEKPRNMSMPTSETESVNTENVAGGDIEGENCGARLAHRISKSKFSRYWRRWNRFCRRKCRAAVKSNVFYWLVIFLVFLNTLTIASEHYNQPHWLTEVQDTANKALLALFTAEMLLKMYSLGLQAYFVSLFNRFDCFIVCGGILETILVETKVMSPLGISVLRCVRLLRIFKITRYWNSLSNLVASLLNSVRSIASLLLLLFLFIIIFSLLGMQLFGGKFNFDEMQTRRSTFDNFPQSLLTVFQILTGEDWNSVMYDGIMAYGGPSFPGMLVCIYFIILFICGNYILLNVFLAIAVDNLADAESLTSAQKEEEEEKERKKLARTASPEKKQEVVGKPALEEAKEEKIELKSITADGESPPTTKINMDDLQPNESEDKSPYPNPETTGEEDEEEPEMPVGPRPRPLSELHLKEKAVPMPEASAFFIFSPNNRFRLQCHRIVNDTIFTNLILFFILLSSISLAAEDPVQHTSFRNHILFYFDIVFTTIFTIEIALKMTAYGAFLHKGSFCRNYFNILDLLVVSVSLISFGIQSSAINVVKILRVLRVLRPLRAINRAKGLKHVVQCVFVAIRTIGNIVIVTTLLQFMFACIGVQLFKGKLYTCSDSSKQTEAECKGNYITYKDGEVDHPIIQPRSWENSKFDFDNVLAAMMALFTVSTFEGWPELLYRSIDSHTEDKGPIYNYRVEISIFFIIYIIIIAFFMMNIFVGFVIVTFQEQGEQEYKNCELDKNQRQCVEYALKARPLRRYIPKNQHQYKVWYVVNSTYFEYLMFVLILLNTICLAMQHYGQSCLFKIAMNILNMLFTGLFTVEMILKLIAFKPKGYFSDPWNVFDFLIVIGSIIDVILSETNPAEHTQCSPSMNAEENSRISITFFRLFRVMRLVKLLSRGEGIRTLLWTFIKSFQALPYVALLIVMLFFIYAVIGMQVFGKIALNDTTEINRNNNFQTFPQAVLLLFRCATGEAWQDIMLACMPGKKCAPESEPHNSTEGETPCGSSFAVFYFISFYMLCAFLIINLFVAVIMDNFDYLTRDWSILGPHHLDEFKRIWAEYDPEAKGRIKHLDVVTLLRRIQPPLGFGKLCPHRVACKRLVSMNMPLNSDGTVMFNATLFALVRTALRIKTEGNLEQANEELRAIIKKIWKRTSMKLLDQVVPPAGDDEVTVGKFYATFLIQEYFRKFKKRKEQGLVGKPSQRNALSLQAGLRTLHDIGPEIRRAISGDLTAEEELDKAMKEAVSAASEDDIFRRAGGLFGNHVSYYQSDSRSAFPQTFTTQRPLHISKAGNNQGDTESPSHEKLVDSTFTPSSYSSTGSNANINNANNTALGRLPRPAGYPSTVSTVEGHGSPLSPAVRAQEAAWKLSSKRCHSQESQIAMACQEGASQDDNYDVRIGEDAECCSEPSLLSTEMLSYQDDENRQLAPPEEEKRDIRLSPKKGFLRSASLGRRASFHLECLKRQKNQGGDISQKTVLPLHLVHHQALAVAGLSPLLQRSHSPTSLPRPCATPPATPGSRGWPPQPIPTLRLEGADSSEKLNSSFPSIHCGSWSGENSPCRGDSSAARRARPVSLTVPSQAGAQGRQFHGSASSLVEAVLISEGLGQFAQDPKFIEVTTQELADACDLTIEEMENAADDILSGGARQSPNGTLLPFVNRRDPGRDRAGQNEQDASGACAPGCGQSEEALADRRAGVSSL
Calcium Channel, sequence (P13806 27-960 partner limits assumed): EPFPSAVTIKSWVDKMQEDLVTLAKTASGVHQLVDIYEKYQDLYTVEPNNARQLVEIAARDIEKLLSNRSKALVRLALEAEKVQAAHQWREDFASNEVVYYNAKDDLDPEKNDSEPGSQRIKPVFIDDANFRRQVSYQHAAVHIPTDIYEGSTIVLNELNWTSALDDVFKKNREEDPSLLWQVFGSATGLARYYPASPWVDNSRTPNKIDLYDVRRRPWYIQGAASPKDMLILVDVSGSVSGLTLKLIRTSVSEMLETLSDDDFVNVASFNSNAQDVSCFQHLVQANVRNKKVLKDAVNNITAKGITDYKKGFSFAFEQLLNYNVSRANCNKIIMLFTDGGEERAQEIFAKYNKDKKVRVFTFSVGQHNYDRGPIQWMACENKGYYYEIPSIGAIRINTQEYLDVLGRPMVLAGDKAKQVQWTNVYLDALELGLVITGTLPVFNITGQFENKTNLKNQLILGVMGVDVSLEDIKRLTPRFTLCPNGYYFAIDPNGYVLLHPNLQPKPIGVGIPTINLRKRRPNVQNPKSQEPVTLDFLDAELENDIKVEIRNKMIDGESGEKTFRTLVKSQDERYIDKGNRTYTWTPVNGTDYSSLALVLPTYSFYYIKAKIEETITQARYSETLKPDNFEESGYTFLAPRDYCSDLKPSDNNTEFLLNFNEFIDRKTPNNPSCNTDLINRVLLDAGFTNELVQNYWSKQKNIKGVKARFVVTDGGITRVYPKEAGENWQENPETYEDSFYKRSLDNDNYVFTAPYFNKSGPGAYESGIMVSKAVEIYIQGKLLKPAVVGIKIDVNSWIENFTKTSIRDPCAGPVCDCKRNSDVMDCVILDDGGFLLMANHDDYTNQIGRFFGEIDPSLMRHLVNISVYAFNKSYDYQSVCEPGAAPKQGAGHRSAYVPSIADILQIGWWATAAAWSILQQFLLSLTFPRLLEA
Calcium Channel, sequence (P13806 961-1106 partner limits assumed): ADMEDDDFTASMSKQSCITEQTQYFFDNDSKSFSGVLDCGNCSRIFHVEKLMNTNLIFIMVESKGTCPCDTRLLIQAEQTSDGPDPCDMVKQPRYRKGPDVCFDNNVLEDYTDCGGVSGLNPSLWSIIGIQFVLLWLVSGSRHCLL

In the case of `COc1ccc([C@@H]2Sc3cc(C)ccc3N(CCCN3CCN(c4ccccc4OC)CC3)C(=O)[C@@H]2OC(C)=O)cc1` [Compound I-36, (2S-cis)-3-Acetoxy-5-[3-(4-(2methoxyphenyl) - 1-piperazinyl)propyl]-2,3-dihydro-2-(4-methoxyphenyl)-8-methyl-1,5-benzothiazepin-4 (5H)-one], the IC50 (as a rule, the midpoint of a concentration-inhibition curve) in test [1] was 140 nM; in test [2] it was 20 nM. The inhibition in vivo (commonly the drop in the measured response relative to a control, in per cent) at 1 mg/kg in test [3] came to 30%.

In the case of `COc1ccc([C@@H]2Sc3cc(Cl)ccc3N(CCCN3CCN(C(c4ccccc4)c4ccccc4)CC3)C(=O)[C@@H]2OC(C)=O)cc1` [Compound I-23, (2S-cis)-3-Acetoxy-5-[3-(4-(benzhydryl)-piperazinyl)propyl]-2,3-dihydro-2-(4-methoxyphenyl)-8-chloro-1,5-benzothiazepin-4(5H)-one], in test [4], the inhibition – broadly, the drop in the measured response relative to a control, in per cent – at 1 µM amounted to 36.4% and the inhibition at 10 µM was 87%. Besides, in test [5] (30 mg/kg PO), the “Decrease of heart rate (%)” value was 12% and the “Antihypertensive action (%)” value worked out at 16%. In test [3], this compound showed an inhibition in vivo at 0.3 mg/kg of 45%.

Consider `COc1ccc([C@@H]2Sc3cc(Cl)ccc3N(CCCN3CCN(c4ccccc4OC)CC3)C(=O)[C@@H]2OC(C)=O)cc1.Cl` [Compound I-18, (2S-cis)-3-Acetoxy-5-[3-(4-(2-methoxyphenyl) -1-piperazinyl)propyl]-2,3-dihydro-2(4-methoxyphenyl) -8-chloro-1,5-benzothiazepin-4(5H)-one hydrochloride], for which the IC50 in test [1] came out at 250 nM. Moreover, in test [4], the inhibition at 1 µM was 23.7% and the inhibition at 10 µM was determined as 73.9%. Further, in test [5] (30 mg/kg PO), the “Decrease of heart rate (%)” value was found to be 7.0% and the “Antihypertensive action (%)” value came out at 18%. Also, the IC50 in test [2] was determined as 37 nM. This compound returned an inhibition in vivo at 0.1 mg/kg in test [3] (0.1 mg/kg iv) of 30%. Besides, the inhibition in vivo at 0.3 mg/kg in test [3] worked out at 42%.

`COc1ccc([C@@H]2Sc3cc(Cl)ccc3N(CCCN3CCN(C(c4ccccc4)c4ccc(Cl)cc4)CC3)C(=O)[C@@H]2OC(C)=O)cc1` (stereo partly drawn) [Compound I-22, (2S-cis)-3-Acetoxy-5-[3-(4-(4-chlorobenzhydryl)-1-piperazinyl)propyl]-2,3-dihydro-2-(4-methoxyphenyl)-8-chloro-l,5-benzothiazepin-4(5H)-one]: the IC50 in test [1] is 340 nM. Also, in test [4], the inhibition at 1 µM was found to be 25.7% and the inhibition at 10 µM is 73.9%. In test [5] (30 mg/kg PO), the “Decrease of heart rate (%)” value amounted to 9.4% and the “Antihypertensive action (%)” value came out at 18%. In test [3], this compound registered an inhibition in vivo at 0.3 mg/kg of 45%.

With `COc1ccc([C@@H]2Sc3cc(OC)ccc3N(CCCN3CCN(c4ccccc4OC)CC3)C(=O)[C@@H]2OC(C)=O)cc1` [Compound I-35, (2S-cis)-3-Acetoxy-5-[3-(4-(2-methoxyphenyl)-1-piperazinyl)propyl]-2,3-dihydro-2-(4-methoxyphenyl)-8-methoxy-l,5-benzothiazepin-4(5H)-one], the IC50 in test [1] is 120 nM; in test [2], 30 nM. This compound came in with an inhibition in vivo at 1 mg/kg in test [3] of 37%.

Consider `COc1ccc([C@@H]2Sc3cc(Cl)ccc3N(CCCN3CCN(c4ccccc4OC)CC3)C(=O)[C@@H]2OC(C)=O)cc1` (relative stereo) [Compound I-8, 3-Acetoxy-5-[3-(4-(2-methoxyphenyl)-piperazinyl)propyl]-2,3-dihydro-2-(4-methoxyphenyl)-8-chloro-1,5-benzothiazepin-4(5H)-one], for which the IC50 in test [1] is 280 nM. In test [4], the inhibition at 1 µM was found to be 17% and the inhibition at 10 µM was determined as 70%. In test [5] (30 mg/kg PO), the “Decrease of heart rate (%)” value stood at 3.2% and the “Antihypertensive action (%)” value amounted to 15%. In test [2], the IC50 is 60 nM. The same compound gave an inhibition in vivo at 0.3 mg/kg in test [3] of 29%.

Take `COc1ccc([C@@H]2Sc3cc(Cl)ccc3N(CCCN3CCN(C(c4ccc(F)cc4)c4ccc(F)cc4)CC3)C(=O)[C@@H]2OC(C)=O)cc1` (relative stereo) [Compound I-15, 3-Acetoxy-5-[3-(4-(4,4'-difluorobenzhydryl) -1-piperazinyl)propyl]-2,3-dihydro-2-(4-methoxyphenyl)-8-chloro-1,5-benzothiazepin-4(5H)-one]: the IC50 was 57 nM in test [1] and 600 nM in test [2]. The inhibition at 10 µM in test [4] turned out to be 76%. Besides, the “Decrease of heart rate (%)” value in test [5] (60 mg/kg PO) stood at 6.5%. In test [5] (60 mg/kg PO), the “Antihypertensive action (%)” value stood at 17%.

For the compound `COc1ccc([C@@H]2Sc3ccccc3N(CCN(C)C)C(=O)[C@@H]2OC(C)=O)cc1` [Diltiazem, reference compound], in test [4], the inhibition at 1 µM was 10% and the inhibition at 10 µM worked out at 29%. Also, in test [5] (60 mg/kg PO), the “Decrease of heart rate (%)” value stood at 15% and the “Antihypertensive action (%)” value was determined as 11%. In addition, the IC50 in test [2] was determined as 13300 nM. Also, at 1 mg/kg the inhibition in vivo in test [3] was 13%.

Values taken from patent US5462936A, “Benzothiazepine derivatives” (Shionogi & Co., Ltd., priority 1991, dated 1995).
